The record followed here is BindingDB's records for doi:10.1016/S0960-894X(00)80683-6 (1993).

Broadly, the IC50 is the midpoint of a concentration-inhibition curve. A high value points to weaker potency in that assay.

Experiment [1] deals with Gastrin/cholecystokinin type B receptor (Cavia porcellus). In words: Ability to inhibit the binding of [125I]-gastrin to gastric glands in guinea pig.
For experiment [2] the target is unchanged. In words: Ability to inhibit the binding of [125I]CCK-8 to Cholecystokinin type B receptor in guinea pig cortex.
Experiment [3] shares this target. Described as above. This is another data set of the same source.

Turning to `CC(C)(C)OC(=O)CN1C(=O)C(NC(=O)Nc2cccc3ccccc23)CCc2ccccc21` (configuration not stated) [[3-(3-Naphthalen-1-yl-ureido)-2-oxo-2,3,4,5-tetrahydro-benzo[b]azepin-1-yl]-acetic acid tert-butyl ester], the IC50 came to 480 nM in experiment [1] and 150 nM in experiment [2].

Turning to `CC(C)(C)OC(=O)CN1C(=O)C(NC(=O)Nc2ccc(Cl)cc2)CCc2ccccc21` (configuration not stated) [{3-[3-(4-Chloro-phenyl)-ureido]-2-oxo-2,3,4,5-tetrahydro-benzo[b]azepin-1-yl}-acetic acid tert-butyl ester], the IC50 was determined as 120 nM in experiment [1] and 180 nM in experiment [3].

In the case of `Cc1cccc(NC(=O)NC2CCc3ccccc3N(CC(=O)N3CCN(C)CC3)C2=O)c1` (configuration not stated) [1-{1-[2-(4-Methyl-piperazin-1-yl)-2-oxo-ethyl]-2-oxo-2,3,4,5-tetrahydro-1H-benzo[b]azepin-3-yl}-3-m-tolyl-urea], the IC50 in experiment [1] was found to be 610 nM; in experiment [2] it was 5000 nM.

On to `CN1CCN(C(=O)CN2C(=O)C(NC(=O)Nc3ccc(Cl)cc3)N=C(c3ccccc3)c3ccccc32)CC1` (configuration not stated) [1-(4-Chloro-phenyl)-3-{1-[2-(4-methyl-piperazin-1-yl)-2-oxo-ethyl]-2-oxo-5-phenyl-2,3-dihydro-1H-benzo[e][1,4]diazepin-3-yl}-urea], for which the IC50 was 2.6 nM in experiment [1] and 8 nM in experiment [3].

On to `COc1cccc(NC(=O)NC2CCc3ccccc3N(CC(=O)O)C2=O)c1` (configuration not stated) [{3-[3-(3-Methoxy-phenyl)-ureido]-2-oxo-2,3,4,5-tetrahydro-benzo[b]azepin-1-yl}-acetic acid], for which the IC50 in experiment [1] came to 3100 nM; in experiment [3], 8600 nM.

In the case of `O=C(Nc1cccc2ccccc12)NC1CCc2ccccc2N(CC(=O)N2CCCC2)C1=O` (configuration not stated) [1-Naphthalen-1-yl-3-[2-oxo-1-(2-oxo-2-pyrrolidin-1-yl-ethyl)-2,3,4,5-tetrahydro-1H-benzo[b]azepin-3-yl]-urea], the concentration for half-maximal inhibition (IC50) stood at 460 nM in experiment [1] and 650 nM in experiment [3].
